Test results reported in US20260061000A1, “COMPOSITIONS AND METHODS FOR THE TREATMENT OF CARDIAC ARRHYTHMIAS, INCLUDING ATRIAL FIBRILLATION” (Lankenau Institute for Medical Research, priority 2022, published 2026).
“And” between values parts separate entries of the source, which are not always exact repeats. Equal entries are not always repeated. “Also recorded” adds a separate entry of the source.

Tests used:
[1] = test system: acetylcholine-mediated AF; experiment: AF cardioversion in canine acetylcholine-mediated AF model (isolated coronary-perfused right atrial preparations); conditions: for AF cardioversion (atria cardioverted / tested): flecainide 1.5 μM
Method: This investigation conforms with the Guide for Care and Use of Laboratory Animals. Hearts from purpose-bred adult male Beagle dogs (10-16 kg, 10-19 months old) were obtained from Envigo (Denver, PA). Dogs were sedated with ketamine (10 mg/kg, intramuscularly [IM]) and xylazine (2 mg/kg, IM). Prior to euthanasia with Euthasol solution (pentobarbital sodium and phenytoin sodium; 0.22 ml/kg, intravenously [IV]), heparin (human pharmaceutical grade, 1,000 U/kg, IV) was administered. The heart was then isolated via a left thoracotomy. Retrograde aortic perfusion of the hearts with ice-cold cardioplegic solution (modified Krebs-Henseleit solution [K-H]; 16 mM KCl) was immediately performed to clear the coronary vasculature of blood. The hearts were then placed in a sealed container containing ice-cold cardioplegic solution and transported to our institution via a private courier in an insulated package surrounded by icepacks.
(§1) Experiments were performed using isolated arterially-perfused canine preparations perfused with Tyrode's solution containing (in mM): NaCl 129, KCl 4, NaH2PO4 0.9, NaHCO3 20, CaCl2 1.8, MgSO4 0.5, glucose 5.5, insulin lunit/liter, bubelled with 95% O2 and 5% CO2. pH=7.4. Preparations consisting of the right atrium with a rim of right ventricle (1.0-2.0 cm) were isolated from the canine hearts (FIG. 1). The ostium of the right coronary artery was cannulated with polyethylene tubing, and the preparations were perfused with cold Tyrode's solution (8°-12° C.) containing 8.5 [K^+]0. With continuous coronary perfusion, all ventricular branches of the right coronary artery were immediately clamped with metal clips (1.5×10 mm; Kent Scientific Corp., Torrington, CT). The total time from excision of the heart to cannulation and perfusion of the artery was 4 minutes. […] coronary branches were ligated using silk thread. The preparations were placed in a temperature-controlled bath (8×6×4 cm) and perfused at a rate of 10-15 mL/min using Tyrode's solution. The temperature was maintained at 37° C.±0.5° C. (PolyStat; Cole Parmer Instrument, IL). The perfusate was delivered to the artery by a roller pump (MasterFlex L/S, Cole Parmer Instrument). An air trap was used to avoid bubbles in the perfusion line.
A well-established acetylcholine (ACh)-mediated non-self-terminating (persistent) AF experimental model was used in the current study.^4 AF was induced by either delivering a single premature stimulus or by rapid pacing (CLs=40-80 ms, for 2-5 seconds). The efficacy and time course for flecainide to cardiovert AF (induced at 4 mM potassium) was studied at 4 mM (baseline) and at 5, 6, and 8 mM of potassium concentration ([K^+]0). Sustained AF (here defined as lasting >1 hour) was induced in 100% experiments in the presence of 4 mM [K^+]. 5-7 minutes after non-self-terminating AF was first introduced at 4 mM [K^+]0, flecainide was added to the Tyrode's perfusate containing either 4 mM [K^+]0 or with a concomitant increase in potassium concentration (to 5, 6, or 8 mM).
Additionally, the capability of elevated potassium (5, 6, and 8 mM) alone to terminate AF was investigated. In these experiments, sustained AF was first induced at 4 mM [K^+]0 and 5-7 minutes later potassium concentrations were increased (to 5, 6, or 8 mM). To mimic hypokalemia, AF termination efficacy of flecainide was tested at 3 mM [K^+]0. If AF was not terminated by the tested conditions in 45 minutes, the AF was considered as “non-terminating”. In the experiments in which AF was cardioverted by tested conditions tested, electrical re-induction of AF was attempted within 1-5 minutes after AF termination (≥5 attempts in ≥2 atrial locations).
Overall, 41 right atrioventricular preparations isolated from 41 canine hearts were used in the study, with 46 experiments investigating AF cardioversion and 11 experiments investigating electrophysiological parameters in atria and ventricles. […]

[2] = test system: acetylcholine-mediated AF; experiment: Electrical re-induction of AF after AF termination in isolated canine right atrial preparations
Method: A well-established acetylcholine (ACh)-mediated non-self-terminating (persistent) AF experimental model was used in the current study.^4 AF was induced by either delivering a single premature stimulus or by rapid pacing (CLs=40-80 ms, for 2-5 seconds). The efficacy and time course for flecainide to cardiovert AF (induced at 4 mM potassium) was studied at 4 mM (baseline) and at 5, 6, and 8 mM of potassium concentration ([K^+]0). Sustained AF (here defined as lasting >1 hour) was induced in 100% experiments in the presence of 4 mM [K^+]. 5-7 minutes after non-self-terminating AF was first introduced at 4 mM [K^+]0, flecainide was added to the Tyrode's perfusate containing either 4 mM [K^+]0 or with a concomitant increase in potassium concentration (to 5, 6, or 8 mM). Additionally, the capability of elevated potassium (5, 6, and 8 mM) alone to terminate AF was investigated. In these experiments, sustained AF was first induced at 4 mM [K^+]0 and 5-7 minutes later potassium concentrations were increased (to 5, 6, or 8 mM). To mimic hypokalemia, AF termination efficacy of flecainide was tested at 3 mM [K^+]0. If AF was not terminated by the tested conditions in 45 minutes, the AF was considered as “non-terminating”. In the experiments in which AF was cardioverted by tested conditions tested, electrical re-induction of AF was attempted within 1-5 minutes after AF termination (≥5 attempts in ≥2 atrial locations).

[3] = test system: atria; experiment: Electrophysiological parameters (APD, ERP, PRR, DTE) in atria of isolated arterially-perfused canine preparations
Method: as §1
(§2) Transmembrane action potential (AP) recordings (sampling rate 41 kHz) were obtained from the right atrium and ventricle using floating glass microelectrodes (10-25 MΩ DC resistance). Glass microelectrodes were connected to a high-input impedance intracellular amplifier (Electro-705; World Precision Instruments, Sarasota, FL). A pseudo-electrocardiogram (ECG) was recorded using two electrodes consisting of Ag/AgCl half cells placed in the Tyrode's solution bathing the preparation, 1.0 to 1.2 cm from opposite ends of the atrial coronary-perfused preparations (FIG. 1). The signals were amplified, digitized, and analyzed (Cambridge Electronic Design, Cambridge, England). Effective refractory period (ERP) was measured by delivering premature stimuli after every 10th basic beat at a pacing cycle length (CL) of 500 ms. The diastolic threshold of excitation (DTE) was determined by increasing stimulus intensity in 0.01 mA steps starting from 0.1 mA, until a steady 1:1 activation was achieved. Post-repolarization refractoriness (PRR) was recognized when ERP exceeded an action potential duration at 90% repolarization (APD90) in the ventricle and action potential duration at 70% repolarization (APD70) in atria. Ventricular ERP coincides with APD90, whereas atrial ERP generally coincides with APD70.^4 The electrophysiological measurements were performed following at least 20 min of perfusion with flecainide and 5 min with elevated potassium concentrations. The electrophysiological measurements were obtained at a CL of 500 ms.

[4] = test system: ventricles; experiment: Electrophysiological parameters (APD, ERP, DTE) in ventricles of isolated arterially-perfused canine preparations; conditions: CL 500 ms
Method: as §1, §2

[5] = test system: ACh-mediated AF; conditions: elevation of [K+]0 from 4 to 6-8 mM; isolated pig atria; cited from earlier work
[6] = test system: recent-onset AF; conditions: flecainide via oral inhalation; patients with recent-onset AF; cited from earlier work
[7] = [K+]0 from 4 to 6 mM, CL 500 ms
[8] = after cardioversion by flecainide and elevated [K+]0 (5-8 mM)
[9] = after cardioversion by flecainide at [K+]0 4 mM
[10] = flecainide 1.5 μM added at [K+]0 6 mM, CL 500 ms
[11] = flecainide at [K+]0 4 mM, CL 500 ms

[K+] [[K^+]0]
AF terminated, % of experiments / atria ([1]; no flecainide, [K+]0 from 4 to 8 mM): 100%
AF termination (atria terminated / tested) ([1]; no flecainide, [K+]0 increased from 4 to 5 mM): did not terminate and 0/5 and did not cardiovert
AF termination (atria terminated / tested) ([1]; no flecainide, [K+]0 increased from 4 to 6 mM): 2/6
AF termination (atria terminated / tested) ([1]; no flecainide, [K+]0 increased from 4 to 8 mM): 4/4
Duration of re-induced AF ([2]; 6 mM [K+]0 alone, in one of two experiments): 20 min
AF inducible after termination (atria) ([2]; 8 mM [K+]0 alone): 4/4
Duration of re-induced AF episodes ([2]; 8 mM [K+]0 alone): ≤ 26 s
AF/AT inducibility after termination ([2]; two experiments in which 6 mM [K+]0 alone terminated AF): readily inducible in both
DTE in atria ([3]; 6 mM [K+]0 vs 4 mM, CL 500 ms): not significantly affected
APD in atria [3, 7]: abbreviated
ERP in atria [3, 7]: significantly prolonging
Post-repolarization refractoriness (PRR) [3, 7]: atrial-selective induction
DTE in ventricles ([4]; 6 mM [K+]0 vs 4 mM): not significantly affected
APD in ventricles ([4]; [K+]0 from 4 to 6 mM): significantly abbreviated
ERP in ventricles ([4]; [K+]0 from 4 to 6 mM): significantly abbreviated
AF cardioversion (atria cardioverted / tested) [5]: 3/4

O=C(NCC1CCCCN1)c1cc(OCC(F)(F)F)ccc1OCC(F)(F)F (stereo not shown) [flecainide]
AF cardioversion (atria cardioverted / tested) ([1]; [K+]0 3 mM (simulated hypokalemia)): 1/6
AF cardioversion (atria cardioverted / tested) ([1]; [K+]0 4 mM, ACh 0.5 μM): moderately effective
AF cardioversion (atria cardioverted / tested) ([1]; [K+]0 4 mM, ACh 0.5 μM, listed as Flecainide): 3/6
AF cardioversion (atria cardioverted / tested) ([1]; [K+]0 elevated to 5 mM): highly effective
AF cardioversion (atria cardioverted / tested) ([1]; [K+]0 elevated to 5 mM, listed as Flecainide): 5/5
AF cardioversion (atria cardioverted / tested) ([1]; [K+]0 elevated to 6 mM): highly effective
AF cardioversion (atria cardioverted / tested) ([1]; [K+]0 elevated to 6 mM, listed as Flecainide): 5/5
AF cardioversion (atria cardioverted / tested) ([1]; [K+]0 elevated to 8 mM): highly effective
AF cardioversion (atria cardioverted / tested) ([1]; [K+]0 elevated to 8 mM, listed as Flecainide): 4/4
Time to conversion (time course of flecainide-mediated AF termination) ([1]; flecainide, elevation of [K+]0 from 4 to 8 mM vs 4 mM): abbreviated
AF/AT inducibility after cardioversion [2, 8]: either not inducible or induced for a very brief episode; also recorded: either not inducible or induced for very brief episodes
Duration of re-induced AF/AT episodes [2, 8]: < 100 s
Duration of re-induced AF/AT episodes, in most cases ([2]; after cardioversion by flecainide and elevated [K+]0 (5-8 mM), in most cases): < 10 s
AF or atrial tachycardia inducible after cardioversion (preparations) [2, 9]: 3/3
Duration of re-induced AF/AT episodes [2, 9]: ≤ 300 s
Duration of re-induced AF episodes ([2]; flecainide at 3 mM [K+]0 (hypokalemia)): ≤ 1860 s
AF re-induction after termination ([2]; flecainide at 3 mM [K+]0 (hypokalemia), the only atria terminated): readily re-induced
Depression of excitability, atria vs ventricles ([3]; combined flecainide and elevated [K+]0 (6 mM)): atrial predominant depression of excitability; also recorded: atrial preferential depression of excitability
ERP in atria [3, 10]: much more pronounced in the atria
Post-repolarization refractoriness (PRR) [3, 10]: atrial predominant development
DTE ([3]; flecainide alone at [K+]0 4 mM, CL 500 ms): moderate atrial predominant increase
APD in atria [3, 11]: no significant change
ERP in atria [3, 11]: substantial lengthening
DTE ([3]; flecainide in the presence of 6 mM [K+]0, CL 500 ms): large atrial-selective increase
ERP in ventricle ([4]; flecainide 1.5 μM added at [K+]0 6 mM): prolongation
APD in ventricles ([4]; flecainide at [K+]0 4 mM): no significant change
Patients restored to sinus rhythm [6]: approximately 50%
